Experimental data reported in patent US9493441B2, “Acyclic cyanoethylpyrazoles as janus kinase inhibitors” (Merck Sharp & Dohme Corp., priority 2011, dated 2016).
Like-named read-outs stand apart in the source and are kept apart here.

Columns and labels:
JAK1 = JAK1 (Homo sapiens (Human), UniProt P23458); assay: Jak biochemical HTRF assay, JAK1
JAK2 = JAK2 (Homo sapiens (Human), UniProt O60674); assay: Jak biochemical HTRF assay, JAK2
[1] = JAK1 IC50 (nM), recombinant GST-tagged catalytic domain, [ATP] 31.8 μM
[2] = JAK2 IC50 (nM), recombinant GST-tagged catalytic domain, [ATP] […]
[3] = read-out: JAK2 IC50, recombinant GST-tagged catalytic domain, [ATP] […]

JAK2, sequence (O60674 849-1124): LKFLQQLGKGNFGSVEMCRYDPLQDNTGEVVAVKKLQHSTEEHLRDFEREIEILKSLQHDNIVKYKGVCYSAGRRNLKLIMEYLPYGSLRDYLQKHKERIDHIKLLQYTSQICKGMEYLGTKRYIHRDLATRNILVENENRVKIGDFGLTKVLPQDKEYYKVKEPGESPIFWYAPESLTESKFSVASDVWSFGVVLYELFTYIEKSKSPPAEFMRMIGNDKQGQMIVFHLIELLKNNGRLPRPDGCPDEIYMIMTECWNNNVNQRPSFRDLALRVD
JAK1, sequence (P23458 875-1153): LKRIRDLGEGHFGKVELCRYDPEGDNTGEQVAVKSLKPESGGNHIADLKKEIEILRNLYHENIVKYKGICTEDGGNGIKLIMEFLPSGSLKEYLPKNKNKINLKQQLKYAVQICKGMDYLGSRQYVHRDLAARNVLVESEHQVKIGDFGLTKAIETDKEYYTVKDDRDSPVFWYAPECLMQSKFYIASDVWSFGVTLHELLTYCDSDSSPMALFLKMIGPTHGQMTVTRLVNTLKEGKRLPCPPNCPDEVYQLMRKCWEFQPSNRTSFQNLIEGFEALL

SMILES | IC50 (JAK1; [1]) | IC50 (JAK2; [2]) | IC50 (JAK1; read-out: JAK1 IC50, recombinant GST-tagged catalytic domain, [ATP] 31.8 μM) | IC50 (JAK2; [3])
Cc1c(Cl)ncnc1N1CCC([C@H](CC#N)n2cc(C(N)=O)c(Nc3ccc(F)cc3)n2)CC1 [Example 13, 1-{(1S)-1-[1-(6-Chloro-5-methylpyrimidin-4-yl)piperidin-4-yl]-2-cyanoethyl}-3-[(4-fluorophenyl)amino]-1H-pyrazole-4-carboxamide] | 823 nM | 1500 nM | – | –
N#CC[C@@H](C1CCN(C(=O)OC2CCC2)CC1)n1cc(C(N)=O)c(Nc2ccc(F)cc2)n1 [Example 11-5, cyclobutyl 4-[(1S)-1-{4-carbamoyl-3-[(4-fluorophenyl)amino]-1H-pyrazol-1-yl}-2-cyanoethyl]piperidine-1-carboxylate] | 33 nM | 1170 nM | – | –
N#CC[C@@H](C1CCN(C(=O)OCC2CC2)CC1)n1cc(C(N)=O)c(Nc2ccc(F)cc2)n1 [Example 11-10, cyclopropylmethyl 4-[(1S)-1-{4-carbamoyl-3-[(4-fluorophenyl)amino]-1H-pyrazol-1-yl}-2-cyanoethyl]piperidine-1-carboxylate] | 44 nM | 1160 nM | – | –
N#CC[C@@H](C1CCN(C(=O)OC2CCCC2)CC1)n1cc(C(N)=O)c(Nc2ccc(F)cc2)n1 [Example 11-6, cyclopentyl 4-[(1S)-1-{4-carbamoyl-3-[(4-fluorophenyl)amino]-1H-pyrazol-1-yl}-2-cyanoethyl]piperidine-1-carboxylate] | 69 nM | 1200 nM | – | –
COCC(C)OC(=O)N1CCC([C@H](CC#N)n2cc(C(N)=O)c(Nc3ccc(F)cc3)n2)CC1 (stereo partly drawn) [Example 11-9, 2-methoxy-1-methylethyl 4-[(1S)-1-{4-carbamoyl-3-[(4-fluorophenyl)amino]-1H-pyrazol-1-yl}-2-cyanoethyl]piperidine-1-carboxylate] | 108 nM | 1030 nM | – | –
CC(C)(C)COC(=O)N1CCC([C@H](CC#N)n2cc(C(N)=O)c(Nc3ccc(F)cc3)n2)CC1 (single isomer, unassigned) [Example 12-2, 2,2-dimethylpropyl 4-[(1S or 1R)-1-{4-carbamoyl-3-[(4-fluorophenyl)amino]-1H-pyrazol-1-yl}-2-cyanoethyl]piperidine-1-carboxylate] | 718 nM | 1500 nM | – | –
COCCOC(=O)N1CCC([C@H](CC#N)n2cc(C(N)=O)c(Nc3ccc(F)cc3)n2)CC1 [Example 12-1, 2-Methoxyethyl 4-[(1S)-1-{4-carbamoyl-3-[(4-fluorophenyl)amino]-1H-pyrazol-1-yl}-2-cyanoethyl]piperidine-1-carboxylate] | 181 nM | 1500 nM | – | –
N#CC[C@@H](C1CCN(C(=O)OCC2CCOC2)CC1)n1cc(C(N)=O)c(Nc2ccc(F)cc2)n1 (stereo partly drawn) [Example 11-12, tetrahydrofuran-3-ylmethyl 4-[(1S)-1-{4-carbamoyl-3-[(4-fluorophenyl)amino]-1H-pyrazol-1-yl}-2-cyanoethyl]piperidine-1-carboxylate] | 181 nM | 1500 nM | – | –
C[C@H](CC#N)n1cc(C(N)=O)c(Nc2ccccc2)n1 (single isomer, unassigned) [Example 17-2, 1-[(2S or 2R)-1-cyanopropan-2-yl]-3-(phenylamino)-1H-pyrazole-4-carboxamide] | – | – | 47 nM | 469 nM
CC(C)(O)c1cn(Cc2cccc(Nc3nn(C(CC#N)C4CCCC4)cc3C(N)=O)c2)nn1 (stereo not shown) [Example 1-8, 1-(2-cyano-1-cyclopentylethyl)-3-[(3-{[4-(1-hydroxy-1-methylethyl)-1H-1,2,3-triazol-1-yl]methyl}phenyl)amino]-1H-pyrazole-4-carboxamide] | 194 nM | 999 nM | – | –
CC(C)(C)CC(CC#N)n1cc(C(N)=O)c(Nc2ccccc2)n1 (stereo not shown) [Example 1-13] | 598 nM | 1480 nM | – | –
N#CC[C@@H](C1CC1)n1cc(C(N)=O)c(Nc2ccc3c(c2)CNC3=O)n1 (single isomer, unassigned) [Example 19-2, 1-[(1R or 1S)-2-cyano-1-cyclopropylethyl]-3-[(1-oxo-2,3-dihydro-1H-isoindol-5-yl)amino]-1H-pyrazole-4-carboxamide] | – | – | – | 105 nM
N#CC[C@H](C1CC1)n1cc(C(N)=O)c(Nc2ccc3c(c2)CNC3=O)n1 (single isomer, unassigned) [Example 19-1, 1-[(1R or 1S)-2-cyano-1-cyclopropylethyl]-3-[(1-oxo-2,3-dihydro-1H-isoindol-5-yl)amino]-1H-pyrazole-4-carboxamide] | – | – | – | 15 nM

The next lines start with the values.

IC50 (JAK1; [1]) | IC50 (JAK2; [2]) | IC50 (JAK1; read-out: JAK1 IC50, recombinant GST-tagged catalytic domain, [ATP] 31.8 μM) | IC50 (JAK2; [3]) | SMILES
69 nM | 474 nM | – | – | N#CCC(C1CCCC1)n1cc(C(N)=O)c(Nc2ccccc2)n1 (stereo not shown) [Example 1-20, 1-(2-cyano-1-cyclopentylethyl)-3-(phenylamino)-1H-pyrazole-4-carboxamide]
13 nM | 73 nM | – | – | N#CCCc1cccc(Nc2nn(C(CC#N)C3CC3)cc2C(N)=O)c1 (stereo not shown) [Example 4-7, 1-(2-cyano-1-cyclopropylethyl)-3-{[3-(2-cyanoethyl)phenyl]amino}-1H-pyrazole-4-carboxamide]
1 nM | 15 nM | – | – | N#CCC(C1CC1)n1cc(C(N)=O)c(Nc2ccc3c(c2)CCS3(=O)=O)n1 (stereo not shown) [Example 5, 1-(2-Cyano-1-cyclopropylethyl)-3-[(1,1-dioxido-2,3-dihydro-1-benzothiophen-5-yl)amino]-1H-pyrazole-4-carboxamide]
10 nM | 79 nM | – | – | N#CCC(C1CC1)n1cc(C(N)=O)c(Nc2ccccc2)n1 (stereo not shown) [Example 1-1, 1-(2-Cyano-1-cyclopropylethyl)-3-(phenylamino)-1H-pyrazole-4-carboxamide]
19 nM | 64 nM | – | – | N#CCC(C1CC1)n1cc(C(N)=O)c(Nc2cccc(C#N)c2)n1 (stereo not shown) [Example 4-16, 1-(2-cyano-1-cyclopropylethyl)-3-[(3-cyanophenyl)amino]-1H-pyrazole-4-carboxamide]
15 nM | 226 nM | – | – | CN1C(=O)c2ccc(Nc3nn(C(CC#N)C4CC4)cc3C(N)=O)cc2C1(C)C (stereo not shown) [Example 4-30, 1-(2-cyano-1-cyclopropylethyl)-3-[(2,3,3-trimethyl-1-oxo-2,3-dihydro-1H-isoindol-5-yl)amino]-1H-pyrazole-4-carboxamide]
1 nM | 13 nM | – | – | C[S+]([O-])c1ccc(Nc2nn(C(CC#N)C3CC3)cc2C(N)=O)cc1 (stereo not shown) [Example 4-32, 1-(2-cyano-1-cyclopropylethyl)-3-{[4-(methylsulfinyl)phenyl]amino}-1H-pyrazole-4-carboxamide]
141 nM | 567 nM | – | – | N#CCC(C1CCCC1)n1cc(C(N)=O)c(Nc2ccccc2)n1 (single isomer, unassigned) [Example 16-4, 1-[(1S or 1R)-2-cyano-1-cyclopentylethyl]-3-(phenylamino)-1H-pyrazole-4-carboxamide]
19 nM | 74 nM | – | – | CCC(CC#N)n1cc(C(N)=O)c(Nc2ccc(C(=O)N3CCS(=O)(=O)CC3)cc2)n1 (stereo not shown) [Example 1-17, 1-[1-{cyanomethyl)propyl]-3-({4-[(1,1-dioxidothiomorpholin-4-yl)carbonyl]phenyl}amino)-1H-pyrazole-4-carboxamide]
19 nM | 45 nM | – | – | CC(CC#N)n1cc(C(N)=O)c(Nc2ccc(C(=O)N3CCS(=O)(=O)CC3)cc2)n1 (stereo not shown) [Example 1-16, 1-(2-cyano-1-methylethyl)-3-({4-[(1,1-dioxidothiomorpholin-4-yl)carbonyl]phenyl}amino)-1H-pyrazole-4-carboxamide]
2 nM | 16 nM | – | – | N#CC[C@H](C1CC1)n1cc(C(N)=O)c(Nc2ccnc(F)c2)n1 (single isomer, unassigned) [Example 17-4, 1-[(1R or 1S)-2-cyano-1-cyclopropylethyl]-3-[(2-fluoropyridin-4-yl)amino]-1H-pyrazole-4-carboxamide]
7 nM | 66 nM | – | – | COc1cc(Nc2nn(C(CC#N)C3CC3)cc2C(N)=O)ccn1 (stereo not shown) [Example 4-12, 1-(2-cyano-1-cyclopropylethyl)-3-[(2-methoxypyridin-4-yl)amino]-1H-pyrazole-4-carboxamide]
2 nM | 20 nM | – | – | CC(C)(C)OC(=O)CN1Cc2cc(Nc3nn(C(CC#N)C4CC4)cc3C(N)=O)ccc2C1=O (stereo not shown) [Example 4-34, tert-butyl (5-{[4-carbamoyl-1-(2-cyano-1-cyclopropylethyl)-1H-pyrazol-3-yl]amino}-1-oxo-1,3-dihydro-2H-isoindol-2-yl)acetate]
5 nM | 236 nM | – | – | CC(C)(C)OC(=O)N1CCC(C(C)(CC#N)n2cc(C(N)=O)c(Nc3ccccc3)n2)CC1 (stereo not shown) [Example 3-3, tert-butyl 4-{2-[4-carbamoyl-3-(phenylamino)-1H-pyrazol-1-yl]-1-cyanopropan-2-yl}piperidine-1-carboxylate]
2 nM | 21 nM | – | – | CNC(=O)c1ccc(Nc2nn(C(CC#N)C3CC3)cc2C(N)=O)cc1 (stereo not shown) [Example 4-13, 1-(2-cyano-1-cyclopropylethyl)-3-{[4-(methylcarbamoyl)phenyl]amino}-1H-pyrazole-4-carboxamide]
32 nM | 198 nM | – | – | C[C@H](C#N)[C@H](C)n1cc(C(N)=O)c(Nc2ccccc2)n1 (mixture of isomers) [Example 1-22, 1-((2S, 3S and 2R, 2R)-3-cyclobutan-2-yl)-3-(phenylamino)-1H-pyrazole-4-carboxamide]
– | 38 nM | – | – | N#CCC(C1CC1)n1cc(C(N)=O)c(Nc2ccc3c(c2)CNC3=O)n1 (stereo not shown) [Example 7, 1-(2-Cyano-1-cyclopropylethyl)-3-[(1-oxo-2,3-dihydro-4H-isoindol-5-yl)amino]-1H-pyrazole-4-carboxamide]
– | 27 nM | – | – | N#CCc1cccc(Nc2nn(C(CC#N)C3CC3)cc2C(N)=O)c1 (stereo not shown) [Example 4-9, 1-(2-cyano-1-cyclopropylethyl)-3-{[3-(cyanomethyl)phenyl]amino}-1H-pyrazole-4-carboxamide]
